Laboratory results reported in paper PMC9403976, “Elucidating the path to Plasmodium prolyl-tRNA synthetase inhibitors that overcome halofuginone resistance” (Nature Communications, 2022).
“And” between values parts separate entries of the source, which are not always exact repeats. Equal values may be shown once. Read-outs that look alike come from different tables or passages of the source.

Tests used:
P. falciparum Dd2-2D4 = assay: P. falciparum asexual blood stage (ABS) growth assay, SYBR Green, 72 h, wild-type parasites; type: cell-based, Plasmodium falciparum; settings: Plasmodium falciparum, DD2; SI Fig 16b; values on -log scale; read-out: ABS - Dd2-2D4 (converted)
[1] = system: halofuginone-induced P. falciparum (elevated proline homeostasis); assay: P. falciparum ABS growth assay, SYBR Green, 72 h, halofuginone-induced parasites; type: cell-based, Plasmodium falciparum
In short: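 Growth inhibition of the resistant and induced Dd2 lines is measured over 72 h in triplicate dose-response, starting at 1% parasitemia and 1% hematocrit. SYBR Green 1 staining gives the fluorescence readout, normalized between 10 μM dihydroartemisinin and no-compound wells.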

[2] = system: HFGR-I P. falciparum (elevated proline homeostasis and PfcProRS^L482H); assay: P. falciparum ABS growth assay, SYBR Green, 72 h, HFGR-I parasites; type: cell-based, Plasmodium falciparum
Text: Parasites were maintained under standard culture conditions as described previously[56],[57]. […] The P. falciparum Dd2 cell lines used in this study (Dd2-2D4, halofuginone-induced, and HFGR-I) have previously undergone whole genome sequencing in our labs. They were also routinely assayed and EC50 values determined using the ABS growth assay (see below) with a panel of standard antimalarial compounds, including halofuginone which has differential activity for the three Dd2 lines used in these experiments. Data were cross-referenced for consistency with literature reported values and data previously acquired in the lab.
This assay was performed as previously described. In short, P. falciparum erythrocytic-stage parasites at 1% parasitemia and 1% hematocrit in RPMI + 0.5% Albumax were seeded at 40 μL/well in 384-well plates with test compounds in triplicate, dose-response format with 10 μM dihydroartemisinin as a kill-control and blank (no compound) wells as a growth-control. […] After 72 h, growth was quantified by measuring fluorescence (Molecular Devices SpectraMax iD5) following SYBR Green 1 staining. Data were analyzed in Excel and plotted in PRISM (V. 8.4.3–9.1.0, GraphPad).

PfcProRS = target: T1, PfcProRS (Plasmodium falciparum, UniProt Q8I5R7); type: binding; settings: single replicates
T1 construct: made in house; host or cells: E. coli SoluBL-21
T1 sequence (Q8I5R7 249-746): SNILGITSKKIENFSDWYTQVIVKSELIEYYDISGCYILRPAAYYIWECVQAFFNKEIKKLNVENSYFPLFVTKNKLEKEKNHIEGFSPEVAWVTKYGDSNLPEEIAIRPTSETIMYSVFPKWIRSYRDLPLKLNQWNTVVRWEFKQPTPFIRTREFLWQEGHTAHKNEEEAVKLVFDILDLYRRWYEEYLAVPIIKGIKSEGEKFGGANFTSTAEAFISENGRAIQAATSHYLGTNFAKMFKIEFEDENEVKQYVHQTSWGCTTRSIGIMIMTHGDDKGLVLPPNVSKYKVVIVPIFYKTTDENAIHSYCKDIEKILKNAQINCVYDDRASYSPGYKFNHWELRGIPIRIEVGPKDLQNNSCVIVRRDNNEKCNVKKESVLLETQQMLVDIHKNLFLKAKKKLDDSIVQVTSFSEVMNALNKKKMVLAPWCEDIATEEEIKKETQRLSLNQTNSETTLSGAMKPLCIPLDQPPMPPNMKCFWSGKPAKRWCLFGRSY

HsProRS = HsProRS (Homo sapiens, UniProt P07814); assay: TR-FRET ligand displacement assay with tracer MAT379 (CoraFluor-1-Halo and anti-His6 antibody formats); type: binding; set-up: made in house; host or cells: E. coli SoluBL-21; settings: for TR-FRET dose-response, normalized signal (SI Fig 11): individual replicates
Chain of HsProRS (P07814 996-1512): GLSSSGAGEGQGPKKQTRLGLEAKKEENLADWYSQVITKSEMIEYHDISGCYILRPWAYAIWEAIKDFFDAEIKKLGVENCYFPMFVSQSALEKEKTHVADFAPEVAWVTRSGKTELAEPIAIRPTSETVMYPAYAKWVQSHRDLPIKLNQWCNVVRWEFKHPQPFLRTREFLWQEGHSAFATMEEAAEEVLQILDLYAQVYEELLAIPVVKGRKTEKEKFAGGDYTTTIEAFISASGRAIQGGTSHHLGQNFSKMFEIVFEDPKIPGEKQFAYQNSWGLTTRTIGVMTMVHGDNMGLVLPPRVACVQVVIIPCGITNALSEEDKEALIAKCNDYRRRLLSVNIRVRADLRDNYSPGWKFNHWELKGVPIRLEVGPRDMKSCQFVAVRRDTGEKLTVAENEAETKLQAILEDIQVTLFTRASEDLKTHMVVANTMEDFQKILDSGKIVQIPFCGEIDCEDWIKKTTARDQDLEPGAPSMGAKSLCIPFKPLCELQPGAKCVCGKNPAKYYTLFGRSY

Compound: O=C(NC1Cc2ccccc2C1)c1nccnc1NC(=O)N1CCC(CO)CC1 [compound 11]
- EC50 (P. falciparum Dd2-2D4): 711 nM
- dose-response value, Replicates 1-3 (SI Fig 2e) ([1]; Log[inhibitor] (M) -5.408): 12
- EC50 ([1]; Plasmodium falciparum, DD2, read-out: Dd2 (EC50 [nM]) halofuginone-induced mean): 2470 nM
- dose-response value, Replicates 1-3 (SI Fig 2f) ([2]; Log[inhibitor] (M) -5.000): 0
- EC50 ([2]; Plasmodium falciparum, DD2, read-out: Dd2 (EC50 [nM]) HFGR1 mean): 1910 nM
- dose-response signal (normalized), SI Fig 8 (PfcProRS; Log[inhibitor] (M) -5.000): 5.60E-02 and 7.55E-02 and 4.27E-02
- dose-response signal (normalized), SI Fig 8 (PfcProRS; Log[inhibitor] (M) -5.301): 7.92E-02 and 2.41E-02 and 4.88E-02
- dose-response signal (normalized), SI Fig 8 (PfcProRS; Log[inhibitor] (M) -5.601): 9.80E-02 and 1.87E-03 and 7.44E-02
- dose-response signal (normalized), SI Fig 8 (PfcProRS; Log[inhibitor] (M) -5.904): 2.50E-01 and 1.37E-01 and 2.03E-01
- dose-response signal (normalized), SI Fig 8 (PfcProRS; Log[inhibitor] (M) -6.208): 3.69E-01 and 3.33E-01 and 3.17E-01
- dose-response signal (normalized), SI Fig 8 (PfcProRS; Log[inhibitor] (M) -6.509): 6.08E-01 and 6.11E-01 and 6.37E-01
- dose-response signal (normalized), SI Fig 8 (PfcProRS; Log[inhibitor] (M) -6.796): 7.29E-01 and 7.94E-01 and 7.90E-01
- dose-response signal (normalized), SI Fig 8 (PfcProRS; Log[inhibitor] (M) -7.108): 8.18E-01 and 8.62E-01 and 9.40E-01
- dose-response signal (normalized), SI Fig 8 (PfcProRS; Log[inhibitor] (M) -7.409): 1.03E+00 and 1.01E+00 and 8.87E-01
- dose-response signal (normalized), SI Fig 8 (PfcProRS; Log[inhibitor] (M) -7.710): 1.08E+00 and 9.42E-01 and 9.86E-01
- dose-response signal (normalized), SI Fig 8 (PfcProRS; Log[inhibitor] (M) -8.000): 1.04E+00 and 9.91E-01 and 1.06E+00
- dose-response signal (normalized), SI Fig 8 (PfcProRS; Log[inhibitor] (M) -8.301): 1.09E+00 and 1.02E+00 and 1.00E+00
- dose-response signal (normalized), SI Fig 8 (PfcProRS; Log[inhibitor] (M) -8.602): 1.07E+00 and 9.31E-01 and 1.05E+00
- dose-response signal (normalized), SI Fig 8 (PfcProRS; Log[inhibitor] (M) -9.000): 8.46E-01 and 1.03E+00 and 9.88E-01
- dose-response signal (normalized), SI Fig 8 (PfcProRS; Log[inhibitor] (M) -9.301): 1.09E+00 and 1.13E+00 and 1.15E+00
- Kd (HsProRS; HsProRS (KD [nM]) + 100 μM proline mean, + 100 μM proline): 8.42 nM
- Kd (HsProRS; HsProRS (KD [nM]) mean, no added proline/ATP (-)): 265 nM
- normalized TR-FRET ligand displacement signal, dose-response replicates (SI Fig 6) (HsProRS; Log[inhibitor] (M) -5.000): 7.29E-02 and 8.36E-02 and 3.81E-02
- TR-FRET dose-response, normalized signal (SI Fig 11) (HsProRS; Log[inhibitor] (M) -5.000): -1.28E-03 and -3.43E-02 and 2.65E-03
- normalized TR-FRET ligand displacement signal, dose-response replicates (SI Fig 6) (HsProRS; Log[inhibitor] (M) -5.301): 1.45E-01 and 1.02E-01 and 9.61E-02
- TR-FRET dose-response, normalized signal (SI Fig 11) (HsProRS; Log[inhibitor] (M) -5.301): 2.77E-02 and 5.85E-02 and -1.28E-02
- normalized TR-FRET ligand displacement signal, dose-response replicates (SI Fig 6) (HsProRS; Log[inhibitor] (M) -5.601): 2.34E-01 and 2.43E-01 and 2.83E-01
- TR-FRET dose-response, normalized signal (SI Fig 11) (HsProRS; Log[inhibitor] (M) -5.601): 8.35E-02 and 4.98E-02 and 9.15E-02
- normalized TR-FRET ligand displacement signal, dose-response replicates (SI Fig 6) (HsProRS; Log[inhibitor] (M) -5.904): 4.84E-01 and 4.37E-01 and 4.52E-01
- TR-FRET dose-response, normalized signal (SI Fig 11) (HsProRS; Log[inhibitor] (M) -5.904): 2.07E-01 and 2.25E-01 and 2.22E-01
- normalized TR-FRET ligand displacement signal, dose-response replicates (SI Fig 6) (HsProRS; Log[inhibitor] (M) -6.208): 6.54E-01 and 5.62E-01 and 6.80E-01
- TR-FRET dose-response, normalized signal (SI Fig 11) (HsProRS; Log[inhibitor] (M) -6.208): 3.66E-01 and 3.44E-01 and 3.52E-01
- normalized TR-FRET ligand displacement signal, dose-response replicates (SI Fig 6) (HsProRS; Log[inhibitor] (M) -6.509): 6.98E-01 and 7.35E-01 and 8.42E-01
- TR-FRET dose-response, normalized signal (SI Fig 11) (HsProRS; Log[inhibitor] (M) -6.509): 5.64E-01 and 5.20E-01 and 5.33E-01
- normalized TR-FRET ligand displacement signal, dose-response replicates (SI Fig 6) (HsProRS; Log[inhibitor] (M) -6.796): 1.06E+00 (2×) and 1.05E+00
- TR-FRET dose-response, normalized signal (SI Fig 11) (HsProRS; Log[inhibitor] (M) -6.796): 7.28E-01 and 6.74E-01 and 6.24E-01
- normalized TR-FRET ligand displacement signal, dose-response replicates (SI Fig 6) (HsProRS; Log[inhibitor] (M) -7.108): 8.92E-01 and 1.10E+00 and 9.75E-01
- TR-FRET dose-response, normalized signal (SI Fig 11) (HsProRS; Log[inhibitor] (M) -7.108): 7.19E-01 and 7.66E-01 and 7.53E-01
- normalized TR-FRET ligand displacement signal, dose-response replicates (SI Fig 6) (HsProRS; Log[inhibitor] (M) -7.409): 9.25E-01 and 9.47E-01 and 1.04E+00
- TR-FRET dose-response, normalized signal (SI Fig 11) (HsProRS; Log[inhibitor] (M) -7.409): 8.67E-01 and 8.81E-01 and 8.44E-01
- normalized TR-FRET ligand displacement signal, dose-response replicates (SI Fig 6) (HsProRS; Log[inhibitor] (M) -7.710): 9.81E-01 and 9.55E-01 and 9.75E-01
- TR-FRET dose-response, normalized signal (SI Fig 11) (HsProRS; Log[inhibitor] (M) -7.710): 9.29E-01 and 8.46E-01 and 9.70E-01
- normalized TR-FRET ligand displacement signal, dose-response replicates (SI Fig 6) (HsProRS; Log[inhibitor] (M) -8.000): 9.65E-01 and 1.05E+00 and 9.80E-01
- TR-FRET dose-response, normalized signal (SI Fig 11) (HsProRS; Log[inhibitor] (M) -8.000): 9.63E-01 and 9.74E-01 and 9.23E-01
- normalized TR-FRET ligand displacement signal, dose-response replicates (SI Fig 6) (HsProRS; Log[inhibitor] (M) -8.301): 1.00E+00 and 9.43E-01 and 1.07E+00
- TR-FRET dose-response, normalized signal (SI Fig 11) (HsProRS; Log[inhibitor] (M) -8.301): 9.20E-01 and 9.31E-01 and 8.90E-01
- normalized TR-FRET ligand displacement signal, dose-response replicates (SI Fig 6) (HsProRS; Log[inhibitor] (M) -8.602): 1.02E+00 (2×) and 9.43E-01
- TR-FRET dose-response, normalized signal (SI Fig 11) (HsProRS; Log[inhibitor] (M) -8.602): 8.99E-01 and 8.64E-01 and 8.60E-01
- normalized TR-FRET ligand displacement signal, dose-response replicates (SI Fig 6) (HsProRS; Log[inhibitor] (M) -9.000): 9.86E-01 and 1.02E+00 and 1.11E+00
- TR-FRET dose-response, normalized signal (SI Fig 11) (HsProRS; Log[inhibitor] (M) -9.000): 9.04E-01 and 9.68E-01 and 8.68E-01
- normalized TR-FRET ligand displacement signal, dose-response replicates (SI Fig 6) (HsProRS; Log[inhibitor] (M) -9.301): 1.03E+00 (2×) and 9.04E-01
- TR-FRET dose-response, normalized signal (SI Fig 11) (HsProRS; Log[inhibitor] (M) -9.301): 8.86E-01 and 9.16E-01 and 9.33E-01
